Results on 34 compounds are retold here after patent publication US11638706B2, “Methods for treating Huntington's disease” (PTC Therapeutics, Inc., priority 2015, dated 2023).

pIC50: −log10 of the molar value.

In this assay the test system is Huntingtin protein (HTT). The assay is described as follows: Endogenous Huntingtin Protein Assay (MSD electrochemiluminescence ELISA; MW1 or MAB2166 capture, #5656S detection). The class given is cell-based, human. How it is done:
The Endogenous Huntingtin Protein assay used in Example 2 was developed using the Best Pair antibodies identified in Table 2, providing highly sensitive, high-throughput detection assays for polyglutamine-expanded (mHTT) and total human HTT in multiple cell systems. The platform used for the assay is the ELISA-based Meso Scale Discovery (MSD) electrochemiluminescence assay platform.
Meso Scale Discovery (MSD) 96-well or 384-well plates were coated overnight at 4° C. with MW1 (expanded polyglutamine) or MAB2166 monoclonal antibody (for capture) at a concentration of 1 μg/mL in PBS (30 μL per well). Plates were then washed three times with 300 μL wash buffer (0.05% Tween-20 in PBS) and blocked (100 μL blocking buffer; 5% BSA in PBS) for 4-5 hours at room temperature with rotational shaking and then washed three times with wash buffer.
Samples (25 μL) were transferred to the antibody-coated MSD plate and incubated overnight at 4° C. After removal of the lysates, the plate was washed three times with wash buffer, and 25 μL of #5656S (Cell signaling; rabbit monoclonal) secondary antibody (diluted to 0.25 μg/mL in 0.05% Tween-20 in blocking buffer) was added to each well and incubated with shaking for 1 Hour at room temperature. Following incubation with the secondary antibody, the wells were rinsed with wash buffer after which 25 μL of goat anti-rabbit SULFO TAG secondary detection antibody (required aspect of the MSD system) (diluted to 0.25 μg/mL in 0.05% Tween-20 in blocking buffer) was added to each well and incubated with shaking for 1 hour at room temperature. After rinsing three times with wash buffer, 150 μL of read buffer T with surfactant (MSD) were added to each empty well, and the plate was imaged on a SI 6000 imager (MSD) according to manufacturers' instructions provided for 96- or 384-well plates.
(In general: In an ELISA, binding on a coated surface is turned into a signal by an enzyme label.)
As to `CC1(C)CC(Oc2ccc(-c3ccc(-n4cc(N)cn4)cc3O)nn2)CC(C)(C)N1` [Cpd 421, 5-(4-amino-1H-pyrazol-1-yl)-2-{6-[(2,2,6,6-tetramethylpiperidin-4-yl)oxy]pyridazin-3-yl}phenol], the pIC50 (as a rule, −log10 of the IC50, conventionally taken in molar units) was at least 7.00.
The value for `CN1CC=C(c2ccc(-c3ccc(-c4cn[nH]c4)cc3O)nn2)CC1` [Cpd 422, 2-[6-(1-methyl-1,2,3,6-tetrahydropyridin-4-yl)pyridazin-3-yl]-5-(1H-pyrazol-4-yl)phenol] was at least 7.00.
`CC1(C)CC(Oc2ccc(-c3ccc(-n4cc([N+](=O)[O-])cn4)cc3O)nn2)CC(C)(C)N1` [Cpd 423, 5-(4-nitro-1H-pyrazol-1-yl)-2-{6-[(2,2,6,6-tetramethylpiperidin-4-yl)oxy]pyridazin-3-yl}phenol]: the pIC50 is at least 7.00.
`Oc1cc(-c2cn[nH]c2)ccc1-c1ccc(C2=CCNCC2)nn1` [Cpd 424, 5-(1H-pyrazol-4-yl)-2-[6-(1,2,3,6-tetrahydropyridin-4-yl)pyridazin-3-yl]phenol] gave a pIC50 of 6.30 to 7.00.
The value for `CCN1CC=C(c2ccc(-c3ccc(-c4cn[nH]c4)cc3O)nn2)CC1` [Cpd 425, 2-[6-(1-ethyl-1,2,3,6-tetrahydropyridin-4-yl)pyridazin-3-yl]-5-(1H-pyrazol-4-yl)phenol] was 6.30 to 7.00; that for `CN(c1ccc(-c2ccc(-c3cn[nH]c3)cc2O)nn1)C1CCNCC1` [Cpd 426, 2-{6-[methyl(piperidin-4-yl)amino]pyridazin-3-yl}-5-(1H-pyrazol-4-yl)phenol] was 6.30 to 7.00; that for `Oc1cc(-c2cn[nH]c2)ccc1-c1ccc(NC2CCNCC2)nn1` [Cpd 427, 2-[6-(piperidin-4-ylamino)pyridazin-3-yl]-5-(1H-pyrazol-4-yl)phenol] was 6.30 to 7.00.
In turn, `CN(c1ccc(-c2cc(F)c(-c3cn[nH]c3)cc2F)nn1)C1CC(C)(C)NC(C)(C)C1` [Cpd 428, 6-[2,5-difluoro-4-(1H-pyrazol-4-yl)phenyl]-N-methyl-N-(2,2,6,6-tetramethylpiperidin-4-yl)pyridazin-3-amine] showed a pIC50 of 6.30 to 7.00.
`Oc1cc(-c2cn[nH]c2)ccc1-c1ccc(C2=CC3CCC(C2)N3)nn1` (stereo not shown) [Cpd 429, 2-[6-(8-azabicyclo[3.2.1]oct-2-en-3-yl)pyridazin-3-yl]-5-(1H-pyrazol-4-yl)phenol] had a pIC50 of 6.30 to 7.00.
For `CN(c1ccc(-c2ccc(-c3cn[nH]c3)c(F)c2F)nn1)C1CC(C)(C)NC(C)(C)C1` [Cpd 430, 6-[2,3-difluoro-4-(1H-pyrazol-4-yl)phenyl]-N-methyl-N-(2,2,6,6-tetramethylpiperidin-4-yl)pyridazin-3-amine] the value was 6.30 to 7.00; for `CC1(C)CC(Oc2ccc(-c3cc(F)c(-c4cn[nH]c4)cc3F)nn2)CC(C)(C)N1` [Cpd 431, 3-[2,5-difluoro-4-(1H-pyrazol-4-yl)phenyl]-6-[(2,2,6,6-tetramethylpiperidin-4-yl)oxy]pyridazine], 6.30 to 7.00.
For `Oc1cc(-c2cn[nH]c2)ccc1-c1ccc(OC2CCNCC2)nn1` [Cpd 432, 2-[6-(piperidin-4-yloxy)pyridazin-3-yl]-5-(1H-pyrazol-4-yl)phenol] the value was 6.30 to 7.00.
For `Oc1cc(-c2cn[nH]c2)ccc1-c1ccc(NC2C[C@H]3CC[C@@H](C2)N3)nn1` (stereo partly drawn) [Cpd 433, 2-{6-[(1R,5S)-8-azabicyclo[3.2.1]oct-3-ylamino]pyridazin-3-yl}-5-(1H-pyrazol-4-yl)phenol] the value was 6.30 to 7.00.
`COc1nc(-c2cn[nH]c2)ccc1-c1ccc(N(C)C2CC(C)(C)NC(C)(C)C2)nn1` [Cpd 434, 6-[2-methoxy-6-(1H-pyrazol-4-yl)pyridin-3-yl]-N-methyl-N-(2,2,6,6-tetramethylpiperidin-4-yl)pyridazin-3-amine] showed a pIC50 of 6.00 to 6.30.
The value for `CC1(C)CC(Oc2ccc(-c3ccc(-c4cn[nH]c4)cc3)nn2)CC(C)(C)N1` [Cpd 435, 3-[4-(1H-pyrazol-4-yl)phenyl]-6-[(2,2,6,6-tetramethylpiperidin-4-yl)oxy]pyridazine] was 6.00 to 6.30; that for `CC1CC(Oc2ccc(-c3ccc(-c4cn[nH]c4)cc3O)nn2)CC(C)N1` (stereo not shown) [Cpd 436, 2-{6-[(2,6-dimethylpiperidin-4-yl)oxy]pyridazin-3-yl}-5-(1H-pyrazol-4-yl)phenol] was 6.00 to 6.30; that for `CC1(C)CC(Oc2ccc(-c3ccc(-c4cn[nH]c4)cc3F)nn2)CC(C)(C)N1` [Cpd 437, 3-[2-fluoro-4-(1H-pyrazol-4-yl)phenyl]-6-[(2,2,6,6-tetramethylpiperidin-4-yl)oxy]pyridazine] was 5.52 to 6.00.
For `Cn1cc(-c2csc(-c3ccc(OC4CC(C)(C)NC(C)(C)C4)nn3)c2)cn1` [Cpd 438, 3-[4-(1-methyl-1H-pyrazol-4-yl)thiophen-2-yl]-6-[(2,2,6,6-tetramethylpiperidin-4-yl)oxy]pyridazine] the value was 5.52 to 6.00.
Regarding `Oc1cc(-c2cn[nH]c2)ccc1-c1ccc(N2CC3(CCNCC3)C2)nn1` [Cpd 439, 2-[6-(2,7-diazaspiro[3.5]non-2-yl)pyridazin-3-yl]-5-(1H-pyrazol-4-yl)phenol], the pIC50 was 5.52 to 6.00.
For `CN(c1ccc(-c2ccc(O)cc2F)nn1)C1CC(C)(C)NC(C)(C)C1` [Cpd 440, 3-fluoro-4-{6-[methyl(2,2,6,6-tetramethylpiperidin-4-yl)amino]pyridazin-3-yl}phenol] the value was 5.05 to 5.52.
For `CC1CC(Oc2ccc(-c3ccc(-n4cccn4)cc3O)nn2)CC(C)N1` (stereo not shown) [Cpd 441, 2-{6-[(2,6-dimethylpiperidin-4-yl)oxy]pyridazin-3-yl}-5-(1H-pyrazol-1-yl)phenol] the value was 5.05 to 5.52; for `CN(c1ccc(-c2ccc3nn(C)cc3c2)nn1)C1CC(C)(C)NC(C)(C)C1` [Cpd 442, N-methyl-6-(2-methyl-2H-indazol-5-yl)-N-(2,2,6,6-tetramethylpiperidin-4-yl)pyridazin-3-amine], 5.05 to 5.52; for `Cn1cc2cc(-c3ccc(OC4CC(C)(C)NC(C)(C)C4)nn3)ccc2n1` [Cpd 443, 2-methyl-5-{6-[(2,2,6,6-tetramethylpiperidin-4-yl)oxy]pyridazin-3-yl}-2H-indazole], 5.05 to 5.52.
For `COc1cc(Cl)ccc1-c1ccc(OC2CC(C)(C)NC(C)(C)C2)nn1` [Cpd 444, 3-(4-chloro-2-methoxyphenyl)-6-[(2,2,6,6-tetramethylpiperidin-4-yl)oxy]pyridazine] the value was 5.05 to 5.52.
Turning to `Cc1nn2ccccc2c1-c1ccc(N(C)C2CC(C)(C)NC(C)(C)C2)nn1` [Cpd 445, N-methyl-6-(2-methylpyrazolo[1,5-a]pyridin-3-yl)-N-(2,2,6,6-tetramethylpiperidin-4-yl)pyridazin-3-amine], the pIC50 is 5.05 to 5.52.
As for `CC1(C)CC(Oc2ccc(-c3ccc4nccn4c3)nn2)CC(C)(C)N1` [Cpd 446, 6-{6-[(2,2,6,6-tetramethylpiperidin-4-yl)oxy]pyridazin-3-yl}imidazo[1,2-a]pyridine], the pIC50 was 5.05 to 5.52.
The value for `CC1(C)CC(Oc2ccc(-c3ccc(-c4cn[nH]c4)s3)nn2)CC(C)(C)N1` [Cpd 448, 3-[5-(1H-pyrazol-4-yl)thiophen-2-yl]-6-[(2,2,6,6-tetramethylpiperidin-4-yl)oxy]pyridazine] was 5.05 to 5.52; that for `Cn1cc(-c2ccc(-c3ccc(OC4CC(C)(C)NC(C)(C)C4)nn3)s2)cn1` [Cpd 449, 3-[5-(1-methyl-1H-pyrazol-4-yl)thiophen-2-yl]-6-[(2,2,6,6-tetramethylpiperidin-4-yl)oxy]pyridazine] was 5.05 to 5.52; that for `CC1(C)CC(Oc2ccc(-c3cc(-c4cn[nH]c4)cs3)nn2)CC(C)(C)N1` [Cpd 450, 3-[4-(1H-pyrazol-4-yl)thiophen-2-yl]-6-[(2,2,6,6-tetramethylpiperidin-4-yl)oxy]pyridazine] was 5.05 to 5.52.
For `CN(c1ccc(-c2ccc(-c3cn[nH]c3)cc2F)nn1)C1CC(C)(C)NC(C)(C)C1` [Cpd 452, 6-[2-fluoro-4-(1H-pyrazol-4-yl)phenyl]-N-methyl-N-(2,2,6,6-tetramethylpiperidin-4-yl)pyridazin-3-amine] the value was 5.05 to 5.52; for `COc1cc(-n2cc([N+](=O)[O-])cn2)ccc1-c1ccc(OC2CC(C)(C)NC(C)(C)C2)nn1` [Cpd 454, 3-[2-methoxy-4-(4-nitro-1H-pyrazol-1-yl)phenyl]-6-[(2,2,6,6-tetramethylpiperidin-4-yl)oxy]pyridazine], 5.05 to 5.52.
The value for `CC1(C)CC(Oc2ccc(-c3ccc(O)cc3O)nn2)CC(C)(C)N1` [Cpd 455, 4-{6-[(2,2,6,6-tetramethylpiperidin-4-yl)oxy]pyridazin-3-yl}benzene-1,3-diol] was 5.05 to 5.52.
`CN(c1ccc(-c2ccc(-c3cn[nH]c3)cc2Cl)nn1)C1CC(C)(C)NC(C)(C)C1` [Cpd 456, 6-[2-chloro-4-(1H-pyrazol-4-yl)phenyl]-N-methyl-N-(2,2,6,6-tetramethylpiperidin-4-yl)pyridazin-3-amine] showed a negative logarithm of the IC50 (pIC50) of 5.05 to 5.52.
For `CC1(C)CC(Oc2ccc(-c3nc(-c4cn[nH]c4)ncc3N)nn2)CC(C)(C)N1` [Cpd 457, 2-(1H-pyrazol-4-yl)-4-{6-[(2,2,6,6-tetramethylpiperidin-4-yl)oxy]pyridazin-3-yl}pyrimidin-5-amine] the value was 5.05 to 5.52.
